The source of these data is patent publication US11999727B2 (Tango Therapeutics, Inc., priority 2020, dated 2024).

Structures are written as SMILES. Some results are limits rather than exact numbers.

Test [1] concerns the target T1, PRMT5 (Homo sapiens, UniProt O14744).
T1 construct: purchased Viva (custom protein)
As to the kind of experiment: PRMT5 biochemical IC50 assay with MTA as cofactor. The following applies: PRMT5, MTA as cofactor; read-out: MTA IC50.

In test [2] the target is T1, PRMT5. In words: PRMT5 biochemical IC50 assay with SAM as cofactor. Particulars: PRMT5, SAM as cofactor; read-out: SAM IC50.
Test [3] has as its system HAP1 MTAP-intact cell line. In words: SDMA in-cell western assay, HAP1 MTAP-intact. The test is classed as cell-based. Particulars: Homo sapiens, HAP1, SDMA in-cell western, HAP1 MTAP-intact; read-out: MTAP HAP1 intact IC50. In outline: (§1)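 Compounds were tested in HAP1 cells differing only in MTAP status (endogenous expression versus null). Cellular SDMA levels were then measured by in-cell western, giving an IC50 in each background.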

In test [4] the test system is HAP1 MTAP-deleted cell line. As to the kind of experiment: Viability assay, MTAP-deleted cell line. The test is classed as cell-based. Particulars: Homo sapiens, read-out: HAP1 MTAP deleted viability. The text has this:
Table 1 additionally indicates IC50 values in a viability assay for the MTAP-deleted cell line (column 10), indicating the effect of treatment with compound on cell survival.

Test [5] addresses T1, PRMT5. In words: PRMT5 biochemical IC50 assay with no cofactor. The following applies: PRMT5, no cofactor. The text has this: Table 1 indicates IC50 values (μM) against PRMT5 for exemplary compounds in the presence of SAM as cofactor, with no cofactor, and with MTA as cofactor, respectively (columns 4-6). […] Ki values can be calculated from the IC50 values as described in the Examples section. As detailed in the Examples section, for the assay performed in the presence of SAM, IC50=Ki×1.5 (Ki=IC50/1.5).

The subject of test [6] is HAP1 MTAP-deleted cell line. In words: SDMA in-cell western assay, HAP1 MTAP-deleted. The test is classed as cell-based. The following applies: for IC50: Homo sapiens, HAP1, SDMA in-cell western, HAP1 MTAP-deleted; for MTAP intact/deleted ratio: SDMA in-cell western. In outline:
as §1

Setting [7] is: HAP1, viability assay, MTAP-deleted cell line.
Setting [8] is: read-out: No Cofactor/ rel IC50.
The mark [9] stands for this setting: read-out: HAP 1 MTAP deleted IC50.
Setting [10] is: IC50 ratio HAP1 MTAP-intact / HAP1 MTAP-deleted.
[11] abbreviates: read-out: HAP1 MTAP deleted IC50.
Where [12] appears, read: HAP1, viability IC50, MTAP-deleted cell line.
The mark [13] stands for this setting: HAP1, viability assay, HAP1 MTAP-deleted.

T1 sequence (O14744 whole entry): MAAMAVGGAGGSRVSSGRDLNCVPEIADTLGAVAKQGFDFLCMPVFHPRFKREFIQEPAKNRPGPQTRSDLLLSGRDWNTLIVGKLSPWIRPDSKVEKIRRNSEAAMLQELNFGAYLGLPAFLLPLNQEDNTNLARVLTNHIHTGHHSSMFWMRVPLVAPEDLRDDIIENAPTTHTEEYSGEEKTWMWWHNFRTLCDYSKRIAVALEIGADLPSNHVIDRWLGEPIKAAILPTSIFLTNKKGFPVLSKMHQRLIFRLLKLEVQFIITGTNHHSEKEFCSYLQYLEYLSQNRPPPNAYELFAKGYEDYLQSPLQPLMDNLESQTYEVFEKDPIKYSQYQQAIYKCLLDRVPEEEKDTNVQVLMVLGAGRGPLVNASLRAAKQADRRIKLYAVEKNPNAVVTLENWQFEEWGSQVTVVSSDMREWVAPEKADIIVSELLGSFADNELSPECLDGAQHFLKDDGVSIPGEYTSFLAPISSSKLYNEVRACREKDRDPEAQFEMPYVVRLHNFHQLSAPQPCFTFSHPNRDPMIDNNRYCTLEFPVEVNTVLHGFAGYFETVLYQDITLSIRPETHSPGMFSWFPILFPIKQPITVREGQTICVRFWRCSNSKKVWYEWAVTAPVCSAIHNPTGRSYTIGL
T1 sequence (Q9BQA1 whole entry partner): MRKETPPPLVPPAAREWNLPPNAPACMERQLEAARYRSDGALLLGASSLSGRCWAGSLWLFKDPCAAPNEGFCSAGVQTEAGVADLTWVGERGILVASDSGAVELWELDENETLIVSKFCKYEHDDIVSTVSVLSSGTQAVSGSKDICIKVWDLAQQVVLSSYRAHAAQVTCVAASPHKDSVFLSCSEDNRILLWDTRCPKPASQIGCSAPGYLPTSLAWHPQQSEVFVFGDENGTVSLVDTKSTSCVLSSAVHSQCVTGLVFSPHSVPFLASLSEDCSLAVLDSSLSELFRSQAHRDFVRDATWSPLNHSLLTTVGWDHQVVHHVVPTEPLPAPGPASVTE

Consider `Cc1cc(NC(=O)C(=O)N2C[C@H](C)CC[C@H]2c2cncnc2)cnc1N` (racemic) [Compound 109, rac-N-(6-amino-5-methylpyridin-3-yl)-2-((2R,5S)-5-methyl-2-(pyrimidin-5-yl)piperidin-1-yl)-2-oxoacetamide], for which the IC50 was 50 to 500 nM on PRMT5 [1]; 50 to 500 nM on PRMT5 [2]; over 1000 nM in test [3]; over 10000 nM in test [4] (setting [7]); over 500 nM on PRMT5 [5] (setting [8]); over 1000 nM in test [6] (setting [9]). In addition, the “MTAP intact/deleted ratio” value in test [6] (setting [10]) is “B (an IC50 ratio greater than or equal to 3 fold but lower than 10 fold)”.
On to `CC[C@@H]1CCN(C(=O)C(=O)Nc2cncc(C(N)=O)c2)[C@H](c2ccccc2)C1` (racemic) [Compound 497, rac-5-[[2-[(2S,4R)-4-ethyl-2-phenyl-1-piperidyl]-2-oxo-acetyl]amino]pyridine-3-carboxamide], for which the IC50 is under 50 nM on PRMT5 [1]; 50 to 500 nM on PRMT5 [2]; over 1000 nM in test [3]; 1000 to 10000 nM in test [4] (setting [7]); 50 to 500 nM on PRMT5 [5] (read-out: No Cofactor/rel IC50); 100 to 1000 nM in test [6] (setting [11]). In test [6] (setting [10]), the MTAP intact/deleted ratio entry is “A (an IC50 ratio greater than or equal to 10 fold)”.
As for `NC(=O)c1cncc(NC(=O)C(=O)N2CCC3(CCOCC3)CC2)c1` [Compound 191, 5-[[2-(3-Oxa-9-azaspiro[5.5]undecan-9-yl)-2-oxo-acetyl]amino]pyridine-3-carboxamide], the IC50 was 50 to 500 nM on PRMT5 [1]; over 500 nM on PRMT5 [2]; over 1000 nM in test [3]; over 10000 nM in test [4] (setting [7]); over 500 nM at PRMT5 [5] (read-out: No Cofactor/rel IC50); over 1000 nM in test [6] (setting [11]). Moreover, the MTAP intact/deleted ratio result in test [6] (setting [10]) is “C (an IC50 ratio of less than 3 fold)”.
As to `C[C@@H]1CC[C@@H](c2ccc(N)cn2)N(C(=O)C(=O)Nc2cncc(C(N)=O)c2)C1` (single isomer, unassigned) [Compound 607], the IC50 at PRMT5 [1] was 50 to 500 nM; on PRMT5 [2], 50 to 500 nM; in test [3], over 1000 nM; in test [4] (setting [12]), over 10000 nM; at PRMT5 [5] (read-out: No Cofactor/rel IC50), over 500 nM; in test [6] (setting [9]), over 1000 nM. Moreover, in test [6] (setting [10]), the MTAP intact/deleted ratio entry is given as “B (an IC50 ratio greater than or equal to 3 fold but lower than 10 fold)”.
As for `CCc1cc(NC(=O)C(=O)N2C[C@@H](C)CC[C@@H]2c2cccc([C@@H]3CCCN(C)C3)c2)cnc1N` [Compound 1090, N-(6-amino-5-ethyl-3-pyridyl)-2-oxo-2-[(2R,5S)-5-methyl-2-[3-[(3S)-1-methyl-3-piperidyl]phenyl]-1-piperidyl]acetamide], the IC50 on PRMT5 [1] is under 50 nM; on PRMT5 [2] it was under 50 nM; in test [3], 100 to 1000 nM; in test [4] (setting [7]), under 1000 nM; on PRMT5 [5] (read-out: No Cofactor/rel IC50), under 50 nM; in test [6] (setting [11]), under 100 nM. Moreover, the MTAP intact/deleted ratio entry in test [6] (IC50 ratio HAP1 MTAP-intact vs HAP1 MTAP-deleted) was “A (an IC50 ratio greater than or equal to 10 fold)”.
Regarding `CCc1cc(NC(=O)C(=O)N2C[C@@H](C)CC[C@@H]2c2cc3[nH]ncc3s2)cnc1N` (single isomer, unassigned) [Compound 967], the IC50 is over 500 nM on PRMT5 [1]; over 500 nM on PRMT5 [2]; over 1000 nM in test [3]; over 10000 nM in test [4] (setting [7]); over 500 nM on PRMT5 [5] (read-out: No Cofactor/rel IC50); over 1000 nM in test [6] (setting [9]). Besides, in test [6] (setting [10]), the MTAP intact/deleted ratio result is given as “B (an IC50 ratio greater than or equal to 3 fold but lower than 10 fold)”.
Turning to `Cc1cc(NC(=O)C(=O)N2C[C@H](C)CC[C@H]2c2ccc(C(C)(C)O)cc2)cnc1N` (racemic) [Compound 672, N-(6-amino-5-methyl-3-pyridyl)-2-[(2R,5S)-2-[4-(1-hydroxy-1-methyl-ethyl)phenyl]-5-methyl-1-piperidyl]-2-oxo-acetamide], the IC50 is 50 to 500 nM at PRMT5 [1]; 50 to 500 nM on PRMT5 [2]; over 1000 nM in test [3]; 1000 to 10000 nM in test [4] (setting [12]); 50 to 500 nM at PRMT5 [5] (read-out: No Cofactor/rel IC50); 100 to 1000 nM in test [6] (setting [9]). Further, in test [6] (setting [10]), the MTAP intact/deleted ratio result is “B (an IC50 ratio greater than or equal to 3 fold but lower than 10 fold)”.
Consider `CC(=O)Nc1cccc([C@@H]2CC[C@@H](C)CN2C(=O)C(=O)Nc2cncc(C)c2)c1` (racemic) [Compound 110, 2-[(2S,5R)-2-(3-acetamidophenyl)-5-methyl-1-piperidyl]-N-(5-methyl-3-pyridyl)-2-oxo-acetamide], for which the IC50 at PRMT5 [1] is 50 to 500 nM; on PRMT5 [2], 50 to 500 nM; in test [3], over 1000 nM; in test [4] (setting [7]), over 10000 nM; at PRMT5 [5] (setting [8]), 50 to 500 nM; in test [6] (setting [9]) it was over 1000 nM. Besides, the “MTAP intact/deleted ratio” value in test [6] (setting [10]) was “B (an IC50 ratio greater than or equal to 3 fold but lower than 10 fold)”.
Regarding `C[C@H]1CC[C@H](C2CCC2)N(C(=O)C(=O)Nc2cncc(C(N)=O)c2)C1` (single isomer, unassigned) [Compound 211], the IC50 on PRMT5 [1] was under 50 nM; at PRMT5 [2] it was 50 to 500 nM; in test [3], over 1000 nM; in test [4] (setting [7]), 1000 to 10000 nM; on PRMT5 [5] (read-out: No Cofactor/rel IC50) it was 50 to 500 nM; in test [6] (setting [11]) it was under 100 nM. In addition, in test [6] (setting [10]), the MTAP intact/deleted ratio result is “A (an IC50 ratio greater than or equal to 10 fold)”.
`COc1ncc(NC(=O)C(=O)N2C[C@@H](C)CC[C@@H]2c2ccc3c(c2)C(=O)NC3)cc1C(N)=O` (racemic) [Compound 759, 2-methoxy-5-[[2-[(2S,5R)-5-methyl-2-(3-oxoisoindolin-5-yl)-1-piperidyl]-2-oxo-acetyl]amino]pyridine-3-carboxamide]: the IC50 at PRMT5 [1] is under 50 nM; on PRMT5 [2], 50 to 500 nM; in test [3], over 1000 nM; in test [4] (setting [13]) it was 1000 to 10000 nM; at PRMT5 [5] (read-out: No Cofactor/rel IC50), 50 to 500 nM; in test [6] (setting [11]) it was 100 to 1000 nM. Also, the MTAP intact/deleted ratio entry in test [6] (setting [10]) is recorded as “A (an IC50 ratio greater than or equal to 10 fold)”.
On to `CC(=O)Nc1ccc([C@@H]2CC[C@@H](C)CN2C(=O)C(=O)Nc2cncc(C)c2)cc1` (racemic) [Compound 111, 2-[(2R,5S)-2-(4-acetamidophenyl)-5-methyl-1-piperidyl]-N-(5-methyl-3-pyridyl)-2-oxo-acetamide], for which the IC50 at PRMT5 [1] is 50 to 500 nM; on PRMT5 [2], 50 to 500 nM; in test [3], over 1000 nM; in test [4] (setting [7]), over 10000 nM; at PRMT5 [5] (setting [8]), 50 to 500 nM; in test [6] (setting [9]), 100 to 1000 nM. In addition, in test [6] (setting [10]), the “MTAP intact/deleted ratio” value is reported as “A (an IC50 ratio greater than or equal to 10 fold)”.
For the molecule `C[C@@H]1CC[C@@H](c2ccc(C#N)c(C3CC3)c2)N(C(=O)C(=O)Nc2cncc(C(N)=O)c2)C1` (racemic) [Compound 244, rac-5-{2-[(2R,5S)-2-(4-Cyano-3-cyclopropylphenyl)-5-methylpiperidin-1-yl]-2-oxoacetamido}pyridine-3-carboxamide], the IC50 at PRMT5 [1] was under 50 nM; at PRMT5 [2] it was 50 to 500 nM; in test [3], over 1000 nM; in test [4] (setting [7]), 1000 to 10000 nM; at PRMT5 [5] (read-out: No Cofactor/rel IC50) it was 50 to 500 nM; in test [6] (setting [11]), under 100 nM. In test [6] (setting [10]), the MTAP intact/deleted ratio result was “A (an IC50 ratio greater than or equal to 10 fold)”.
Take `CCOc1ncc(NC(=O)C(=O)N2C[C@H](C)CC[C@H]2c2ccccc2)cc1C(N)=O` (single isomer, unassigned) [Compound 765]: the IC50 at PRMT5 [1] is over 500 nM; at PRMT5 [2] it was over 500 nM; in test [3], over 1000 nM; in test [4] (setting [13]) it was over 10000 nM; at PRMT5 [5] (read-out: No Cofactor/rel IC50), over 500 nM; in test [6] (setting [11]), over 1000 nM. Further, the MTAP intact/deleted ratio entry in test [6] (setting [10]) is “C (an IC50 ratio of less than 3 fold)”.
As to `Cc1cc(NC(=O)C(=O)N2C[C@H](C)CC[C@H]2c2ccc3sc(C(F)(F)F)nc3c2)cnc1N` (racemic) [Compound 861, rac-N-(6-Amino-5-methyl-3-pyridyl)-2-[(2R,5S)-5-methyl-2-[2-(trifluoromethyl)-1,3-benzothiazol-5-yl]-1-piperidyl]-2-oxo-acetamide], the IC50 was 50 to 500 nM on PRMT5 [1]; 50 to 500 nM on PRMT5 [2]; 100 to 1000 nM in test [3]; under 1000 nM in test [4] (setting [13]); 50 to 500 nM at PRMT5 [5] (read-out: No Cofactor/rel IC50); under 100 nM in test [6] (setting [11]). Also, in test [6] (setting [10]), the MTAP intact/deleted ratio result is “A (an IC50 ratio greater than or equal to 10 fold)”.
